Patent publication US20060275835A1, “Methods for identifying cell surface receptor protein modulators” (priority 2003, published 2006)

Assays:
Type in all cases: cell-based
mGluR5 [1] = molecular target: T1, mGluR5 (Homo sapiens, UniProt P41594); assay: FLIPR Ca2+ flux assay in human mGluR5 CHONFAT/mGLAST cells; conditions: Fluo-4, FLIPR384, normalized to glutamate (10 μM) control maximum; EC50 values only in figure
T1 construct: expressed in transfected cells
Procedure: Agonists were added after 10 seconds of baseline determination. Data were normalized to a glutamate (10 μM) control maximum. Concentration-response curves were generated from mean data of 5 experiments. Error bars are SEM.
CHO cells expressing mGluR5 receptors (mGluR5 CHO cells) were plated in clear-bottomed, poly-D-lysine coated 384-well plates (Becton-Dickinson 35-6663 Franklin Lakes USA) in glutamate/glutamine-free medium using a Multidrop 384 cell dispenser (Thermo Labsystems, Franklin USA). The plated cells were grown overnight at 37° C. in the presence of 6% CO2. The following day, the cells were washed with 3×100 μl assay buffer (Hanks Balanced Salt Solution (Gibco 14025) containing 20 mM HEPES (Gibco 15630), 2.5 mM probenicid (Sigma P-8761), and 0.1% bovine serum albumin (Sigma) using an Embla cell washer (Skatron, Lier Norway). The cells were incubated with 1 μM Fluo-4AM (Molecular Probes) for 1 h at 37° C. and 6% CO2. The extracellular dye was removed by washing as described above. Ca^2+ flux was measured using FLIPR384, fluorometric imaging plate reader (Molecular Devices, Sunnyvale USA). For potency determination, the cells were pre-incubated with various concentrations of compound for 5 min and then stimulated for 3 min with either an EC20 or EC50 concentration of agonist (i.e. glutamate) for potentiation measurements or antagonist measurements, respectively.

CHONFAT cells = assay: β-lactamase reporter gene assay in non-transfected CHONFAT cells; conditions: 200 nM thapsigargin; maximal fluorescence
Text: (§1) Aurora transcription based reporter cell lines were used to develop reporter gene assays for the mGluRs. The cell line, CHONFAT-β-lactamase, reports signaling through Gq-coupled receptors via an increase in intracellular calcium. The β-lactamase gene is under the transcriptional control of the nuclear factor of activated T-cells (N-FAT) promoter (reporting increased intracellular calcium). A second cell line Gqi5CHONFAT was utilized for Gi coupled mGluRs. This cell line contains a promiscuous G-protein that promotes coupling to a Gq signal transduction cascade. […] The production of β-lactamase resulting from the downstream signaling events of receptor activation is detected by loading cells with a fluorescent dye, CCF2-AM, a substrate cleavable by the β-lactamase enzyme. In its cleaved state, the substrate will fluoresce blue (EM460) when stimulated with UV light (395 nm). Noncleaved, the intact dye fluoresces green (EM530) (Science 1998, 279:84-88). The ratio of blue to green cells (Em460/530) is determined as a measure of signal transduction, with cells that have transduced a signal being blue and those that have not green. […]

mGluR5 [2] = molecular target: T1, mGluR5; assay: β-lactamase reporter gene assay in mGluR5CHONFAT co-expressing mGLAST
Text: Aurora transcription based reporter cell lines were used to develop reporter gene assays for the mGluRs. The cell line, CHONFAT-β-lactamase, reports signaling through Gq-coupled receptors via an increase in intracellular calcium. The β-lactamase gene is under the transcriptional control of the nuclear factor of activated T-cells (N-FAT) promoter (reporting increased intracellular calcium). A second cell line Gqi5CHONFAT was utilized for Gi coupled mGluRs. This cell line contains a promiscuous G-protein that promotes coupling to a Gq signal transduction cascade. […] The production of β-lactamase resulting from the downstream signaling events of receptor activation is detected by loading cells with a fluorescent dye, CCF2-AM, a substrate cleavable by the β-lactamase enzyme. In its cleaved state, the substrate will fluoresce blue (EM460) when stimulated with UV light (395 nm). Noncleaved, the intact dye fluoresces green (EM530) (Science 1998, 279:84-88). The ratio of blue to green cells (Em460/530) is determined as a measure of signal transduction, with cells that have transduced a signal being blue and those that have not green.
Cells were plated at 80,000 cells per well in poly-D-lysine coated black clear bottom plates (Becton Dickinson) and grown in glutamate/glutamine free media (DMEM, -glutamine, 10% dialyzed fetal calf serum, 100 units/ml penicillin/streptomycin, 0.1 mM non-essential amino acids, 1 mM sodium pyruvate, 25 mM HEPES, 0.25 mg/mL zeocin, 10 μg/ml puromycin (Clontech 8052-2) and 1 mg/mL G418 for cell lines co-expressing mGluRs and mGLAST. All media was from GIBCO unless specified. Cells were grown overnight at 5% CO2, 37° C. The next day, media was aspirated and the cells were washed twice with serum-free DMEM and replaced with 100 μL of assay media (DMEM, glutamine free), 0.1% BSA, 25 mM HEPES. […] Plates were read 45-60 minutes later on a fluorescence plate reader (excitation 405±10 nm, emission 460±20 nm for blue; 530±15 nm. Wells containing dye and no cells were used to subtract background values.

mGluR5 [3] = molecular target: T1, mGluR5; assay: β-lactamase reporter gene assay in mGluR5CHONFAT cells without mGLAST co-expression; conditions: 1 μM quisqualate
Text: as §1

T1 sequence (P41594 21-1212): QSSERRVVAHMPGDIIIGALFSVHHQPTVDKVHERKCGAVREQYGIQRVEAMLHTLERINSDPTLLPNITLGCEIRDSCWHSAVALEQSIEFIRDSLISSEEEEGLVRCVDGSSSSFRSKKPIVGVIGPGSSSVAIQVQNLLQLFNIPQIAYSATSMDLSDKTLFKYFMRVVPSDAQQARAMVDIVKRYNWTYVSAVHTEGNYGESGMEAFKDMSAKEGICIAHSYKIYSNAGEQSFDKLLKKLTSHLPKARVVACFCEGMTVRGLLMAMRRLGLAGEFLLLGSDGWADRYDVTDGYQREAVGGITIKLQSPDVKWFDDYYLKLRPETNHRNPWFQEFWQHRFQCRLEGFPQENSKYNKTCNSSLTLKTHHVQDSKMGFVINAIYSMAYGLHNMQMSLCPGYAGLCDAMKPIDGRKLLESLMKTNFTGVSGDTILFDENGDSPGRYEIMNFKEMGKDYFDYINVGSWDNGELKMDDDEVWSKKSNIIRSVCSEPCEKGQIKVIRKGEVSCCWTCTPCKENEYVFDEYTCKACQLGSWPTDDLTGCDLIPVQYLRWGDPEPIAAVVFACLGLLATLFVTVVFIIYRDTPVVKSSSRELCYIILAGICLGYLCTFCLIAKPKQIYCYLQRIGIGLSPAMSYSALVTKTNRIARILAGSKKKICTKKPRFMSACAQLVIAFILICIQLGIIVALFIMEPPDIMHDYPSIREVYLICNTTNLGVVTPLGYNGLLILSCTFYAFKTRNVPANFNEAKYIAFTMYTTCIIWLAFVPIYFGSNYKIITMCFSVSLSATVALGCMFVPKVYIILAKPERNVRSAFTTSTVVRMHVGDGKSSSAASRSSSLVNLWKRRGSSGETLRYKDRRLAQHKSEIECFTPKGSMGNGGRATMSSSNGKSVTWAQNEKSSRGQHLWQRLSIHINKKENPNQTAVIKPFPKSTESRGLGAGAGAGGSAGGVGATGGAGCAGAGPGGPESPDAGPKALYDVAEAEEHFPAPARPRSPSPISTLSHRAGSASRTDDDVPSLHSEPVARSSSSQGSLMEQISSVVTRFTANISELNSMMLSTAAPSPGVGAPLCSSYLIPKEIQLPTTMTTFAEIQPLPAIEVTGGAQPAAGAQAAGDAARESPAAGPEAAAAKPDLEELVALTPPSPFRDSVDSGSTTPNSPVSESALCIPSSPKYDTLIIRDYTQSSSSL

NC(C(=O)O)c1cc(O)cc(O)c1 (centres unmarked) [3,5-DHPG]
activation of Ca^2+ transients (mGluR5 [1]): activate Ca^2+ transients

C/C=C(/C)C(=O)O[C@H]1C(C)=C2[C@H]([C@@H]1OC(=O)CCCCCCC)[C@@](C)(OC(C)=O)C[C@H](OC(=O)CCC)[C@@]1(O)[C@H]2OC(=O)[C@@]1(C)O [thapsigargin]
fluorescence ratio (EM460/530) (CHONFAT cells): 1.0

N[C@@H](CCC(=O)O)C(=O)O [glutamate]
activation of Ca^2+ transients (mGluR5 [1]): activate Ca^2+ transients

N[C@@H](Cn1oc(=O)[nH]c1=O)C(=O)O [quisqualate]
fluorescence ratio (EM460/530) (mGluR5 [2]; 10 μM quisqualate, with mGLAST co-expression): 1.35
EC50 (mGluR5 [2]; dose response in the absence of positive allosteric modulator): 44 nM
EC50 (mGluR5 [2]; dose response in the presence of 10 μM positive allosteric modulator): 15 nM
fluorescence ratio (EM460/530) (mGluR5 [3]): 0.85
activation of Ca^2+ transients (mGluR5 [1]): activate Ca^2+ transients
